# From PMC6407913, “DREADD Agonist 21 Is an Effective Agonist for Muscarinic-Based DREADDs in Vitro and in Vivo” (ACS Pharmacology & Translational Science, 2018)
# Changes are numbered by the printed parent chain. “And” between values parts separate entries of the source, which are not always exact repeats. Identical values can stand only once. Like-named read-outs stand apart in the source and are kept apart here.
# Columns and labels:
# hM1 [1] = target: T1, hM1 (Homo sapiens, UniProt P11229); experiment: IP-One accumulation assay; type: cell-based; details: wildtype hM1
# T1 sequence (P11229 1-460): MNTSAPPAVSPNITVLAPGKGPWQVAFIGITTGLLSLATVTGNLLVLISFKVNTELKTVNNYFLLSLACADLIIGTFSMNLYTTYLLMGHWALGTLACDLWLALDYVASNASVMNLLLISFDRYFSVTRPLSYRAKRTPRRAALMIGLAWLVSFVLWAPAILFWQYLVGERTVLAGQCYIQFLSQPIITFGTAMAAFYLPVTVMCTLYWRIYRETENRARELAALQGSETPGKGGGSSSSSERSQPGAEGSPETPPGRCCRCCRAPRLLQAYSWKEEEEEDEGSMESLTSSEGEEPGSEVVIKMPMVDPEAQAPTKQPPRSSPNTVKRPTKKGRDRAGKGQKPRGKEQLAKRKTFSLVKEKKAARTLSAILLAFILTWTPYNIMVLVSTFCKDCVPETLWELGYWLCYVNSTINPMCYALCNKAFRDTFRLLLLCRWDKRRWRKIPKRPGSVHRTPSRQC
# hM1 [2] = target: T1, hM1; experiment: ERK1/2 phosphorylation (pERK1/2) assay; type: cell-based; details: wildtype hM1
# [3] = target: T2, 318 nonolfactory human GPCRs (Homo sapiens, UniProt O15354); type: cell-based; details: GPR37; C21 5 µM
# T2 construct: expressed in transfected cells; host or cells: HTLA cells, transient
# [4] = target: 318 nonolfactory human GPCRs (Homo sapiens, UniProt P21917); type: cell-based; details: DRD4; C21 5 µM
# [5] = target: T3, 318 nonolfactory human GPCRs (Homo sapiens, UniProt P35367); type: cell-based; details: HRH1; C21 5 µM
# T3 construct: expressed in transfected cells; host or cells: HTLA cells, transient
# [6] = target: 318 nonolfactory human GPCRs (Homo sapiens, UniProt Q8IYL9); type: cell-based; details: GPR65; C21 5 µM
# [7] = target: T4, 318 nonolfactory human GPCRs (Homo sapiens, UniProt Q8IZP9); type: cell-based; details: GPR64; C21 5 µM
# T4 construct: expressed in transfected cells; host or cells: HTLA cells, transient
# [8] = target: T5, 318 nonolfactory human GPCRs (Homo sapiens, UniProt Q9BZJ6); type: cell-based; details: GPR63; C21 5 µM
# T5 construct: expressed in transfected cells; host or cells: HTLA cells, transient
# [9] = system: 318 nonolfactory human GPCRs; type: cell-based; details: for FOLD OVER BASAL: C21 5 µM
# hM1 [10] = target: T1, hM1; experiment: pERK assay, antagonist mode (shift of ACh curve); type: cell-based; details: hM1, CHO cells
# Source text: In the absence of C21 ([B] = 0), this equation becomes the standard four-parameter logistic equation for fitting agonist concentration–response data.
# [11] = brain and plasma exposure after i.p. administration; type: in vivo, mice
# hM3Dq in LH-vGAT neurons = experiment: food intake, hM3Dq in LH-vGAT neurons; type: in vivo, mice; details: 0.3, 1.0, 3.0 mg/kg
# hM1Dq [12] = target: T6, hM1Dq (Homo sapiens, UniProt P11229, A196G/Y106C); experiment: IP-One accumulation assay
# T6 sequence (P11229 1-460 Y106C/A196G): T1 sequence (P11229 1-460) with Y106C, A196G
# hM4Di = target: T7, hM4Di (Homo sapiens, UniProt P08173, A203G/Y113C); experiment: inhibition of isoproterenol-stimulated cAMP production; type: cell-based; design: expressed in transfected cells; details: inhibition of isoproterenol elevated cAMP, mean (±SEM)
# T7 sequence (P08173 1-479 Y113C/A203G): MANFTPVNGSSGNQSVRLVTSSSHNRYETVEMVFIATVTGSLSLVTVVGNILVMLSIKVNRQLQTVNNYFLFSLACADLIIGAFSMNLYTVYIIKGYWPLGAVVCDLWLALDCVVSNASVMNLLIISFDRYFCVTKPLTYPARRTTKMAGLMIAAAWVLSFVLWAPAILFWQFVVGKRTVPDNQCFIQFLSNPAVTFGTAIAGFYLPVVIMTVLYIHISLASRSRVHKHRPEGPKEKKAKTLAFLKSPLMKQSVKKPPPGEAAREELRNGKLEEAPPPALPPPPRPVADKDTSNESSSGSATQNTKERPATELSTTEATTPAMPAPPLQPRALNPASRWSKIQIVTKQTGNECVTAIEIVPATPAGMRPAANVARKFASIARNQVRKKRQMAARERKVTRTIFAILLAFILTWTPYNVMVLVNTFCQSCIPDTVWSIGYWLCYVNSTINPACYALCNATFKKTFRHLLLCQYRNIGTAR
# hM1Dq [13] = target: T6, hM1Dq; experiment: whole-cell [3H]NMS competition binding
# hM1Dq [14] = target: T6, hM1Dq; experiment: ERK1/2 phosphorylation (pERK1/2) assay
# [15] = system: hM4Di expressed in PVH SIM1 neurons; experiment: food intake, hM4Di in PVH SIM1 neurons (Sim1-Cre mice)
# [16] = i.p. 0.1, 1 and 10 mg/kg, 30 min after administration
# T3 sequence (P35367 whole entry): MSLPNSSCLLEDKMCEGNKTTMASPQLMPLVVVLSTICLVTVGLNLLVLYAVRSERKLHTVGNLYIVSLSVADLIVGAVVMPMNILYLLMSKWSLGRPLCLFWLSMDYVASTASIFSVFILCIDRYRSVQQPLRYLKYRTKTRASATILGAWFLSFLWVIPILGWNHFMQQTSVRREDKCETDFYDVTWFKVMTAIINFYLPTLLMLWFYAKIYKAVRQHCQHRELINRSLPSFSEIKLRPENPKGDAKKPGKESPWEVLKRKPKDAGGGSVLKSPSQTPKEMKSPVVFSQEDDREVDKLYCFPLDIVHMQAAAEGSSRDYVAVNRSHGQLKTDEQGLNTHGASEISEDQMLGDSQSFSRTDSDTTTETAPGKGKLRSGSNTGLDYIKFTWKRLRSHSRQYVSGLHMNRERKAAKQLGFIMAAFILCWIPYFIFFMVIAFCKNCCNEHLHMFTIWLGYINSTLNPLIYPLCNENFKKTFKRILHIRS
# T4 sequence (Q8IZP9 38-1017): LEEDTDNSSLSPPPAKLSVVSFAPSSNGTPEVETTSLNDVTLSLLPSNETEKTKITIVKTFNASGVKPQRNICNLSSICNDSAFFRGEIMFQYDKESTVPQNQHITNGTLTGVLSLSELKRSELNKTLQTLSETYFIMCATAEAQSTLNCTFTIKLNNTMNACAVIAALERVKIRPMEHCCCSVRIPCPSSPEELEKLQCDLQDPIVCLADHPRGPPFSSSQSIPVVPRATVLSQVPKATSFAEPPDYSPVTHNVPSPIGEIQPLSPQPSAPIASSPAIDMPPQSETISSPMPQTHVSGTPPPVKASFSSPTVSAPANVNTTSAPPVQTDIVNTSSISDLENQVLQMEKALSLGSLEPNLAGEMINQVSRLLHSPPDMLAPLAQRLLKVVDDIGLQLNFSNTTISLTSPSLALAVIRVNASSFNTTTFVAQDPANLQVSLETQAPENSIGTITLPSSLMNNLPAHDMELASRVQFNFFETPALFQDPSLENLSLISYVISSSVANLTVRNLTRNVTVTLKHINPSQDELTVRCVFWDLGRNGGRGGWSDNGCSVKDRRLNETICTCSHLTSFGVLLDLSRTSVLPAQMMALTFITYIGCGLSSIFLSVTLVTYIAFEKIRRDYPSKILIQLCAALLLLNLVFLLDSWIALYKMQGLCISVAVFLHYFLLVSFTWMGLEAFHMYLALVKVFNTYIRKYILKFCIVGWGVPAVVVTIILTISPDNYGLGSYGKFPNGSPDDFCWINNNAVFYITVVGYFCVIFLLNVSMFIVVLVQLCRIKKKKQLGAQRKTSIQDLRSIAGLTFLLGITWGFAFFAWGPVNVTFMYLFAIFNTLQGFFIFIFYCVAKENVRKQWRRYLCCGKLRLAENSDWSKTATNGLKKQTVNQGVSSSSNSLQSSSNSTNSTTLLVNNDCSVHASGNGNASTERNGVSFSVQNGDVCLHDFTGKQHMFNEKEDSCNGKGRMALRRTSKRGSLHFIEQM
# Chain of 318 nonolfactory human GPCRs (Homo sapiens, UniProt P21917) (P21917 whole entry): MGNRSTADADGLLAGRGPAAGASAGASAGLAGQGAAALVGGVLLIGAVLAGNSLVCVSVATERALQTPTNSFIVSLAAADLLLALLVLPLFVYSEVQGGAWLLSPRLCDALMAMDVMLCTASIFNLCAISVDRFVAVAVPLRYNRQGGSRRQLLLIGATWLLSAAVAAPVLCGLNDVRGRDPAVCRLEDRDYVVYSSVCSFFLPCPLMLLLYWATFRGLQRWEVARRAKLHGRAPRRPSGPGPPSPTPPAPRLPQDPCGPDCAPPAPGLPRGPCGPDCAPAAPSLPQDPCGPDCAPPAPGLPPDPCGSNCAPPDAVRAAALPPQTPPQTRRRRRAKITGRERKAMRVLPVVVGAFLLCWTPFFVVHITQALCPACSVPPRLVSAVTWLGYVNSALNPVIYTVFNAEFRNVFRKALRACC
# T5 sequence (Q9BZJ6 whole entry): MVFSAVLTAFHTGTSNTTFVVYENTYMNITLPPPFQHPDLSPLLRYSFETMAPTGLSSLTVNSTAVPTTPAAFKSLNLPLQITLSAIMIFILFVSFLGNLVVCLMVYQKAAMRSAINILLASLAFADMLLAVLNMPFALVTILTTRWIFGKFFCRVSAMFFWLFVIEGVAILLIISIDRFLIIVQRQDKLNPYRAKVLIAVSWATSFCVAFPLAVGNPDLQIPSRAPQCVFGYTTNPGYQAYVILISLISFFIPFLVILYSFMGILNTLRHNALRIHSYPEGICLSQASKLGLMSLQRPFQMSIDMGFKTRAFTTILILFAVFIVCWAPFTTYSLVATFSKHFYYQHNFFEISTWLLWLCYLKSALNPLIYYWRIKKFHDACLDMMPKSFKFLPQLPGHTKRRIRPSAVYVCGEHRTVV
# T2 sequence (O15354 27-613): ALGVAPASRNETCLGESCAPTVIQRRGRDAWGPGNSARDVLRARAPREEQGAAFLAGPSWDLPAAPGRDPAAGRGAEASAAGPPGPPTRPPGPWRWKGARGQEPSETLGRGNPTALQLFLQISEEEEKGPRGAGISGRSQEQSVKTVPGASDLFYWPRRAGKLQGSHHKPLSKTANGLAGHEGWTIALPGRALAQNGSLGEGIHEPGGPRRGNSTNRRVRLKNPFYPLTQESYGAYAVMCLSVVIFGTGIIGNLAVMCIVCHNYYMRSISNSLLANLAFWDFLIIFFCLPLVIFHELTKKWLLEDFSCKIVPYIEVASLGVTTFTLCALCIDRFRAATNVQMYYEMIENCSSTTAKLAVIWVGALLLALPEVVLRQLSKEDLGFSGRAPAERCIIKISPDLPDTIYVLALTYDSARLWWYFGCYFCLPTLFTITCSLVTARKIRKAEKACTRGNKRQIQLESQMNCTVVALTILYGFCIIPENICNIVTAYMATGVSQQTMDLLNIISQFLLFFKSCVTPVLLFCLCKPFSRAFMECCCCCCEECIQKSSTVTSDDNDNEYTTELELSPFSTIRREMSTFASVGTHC
# Chain of 318 nonolfactory human GPCRs (Homo sapiens, UniProt Q8IYL9) (Q8IYL9 whole entry): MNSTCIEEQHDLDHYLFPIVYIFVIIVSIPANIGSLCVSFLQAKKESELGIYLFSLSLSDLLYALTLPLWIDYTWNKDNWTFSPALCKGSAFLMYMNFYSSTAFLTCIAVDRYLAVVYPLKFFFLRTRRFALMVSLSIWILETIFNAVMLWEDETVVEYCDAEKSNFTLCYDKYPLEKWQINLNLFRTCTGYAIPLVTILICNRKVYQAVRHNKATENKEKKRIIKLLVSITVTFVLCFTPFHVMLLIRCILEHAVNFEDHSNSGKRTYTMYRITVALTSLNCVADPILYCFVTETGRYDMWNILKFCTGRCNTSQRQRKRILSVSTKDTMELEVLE
structure (smiles),measurement,setting,value
"c1ccc2c(c1)N=C(N1CCNCC1)c1ccccc1N2 [C21, 11-(1-piperazinyl)-5H-dibenzo[b,e][1,4]diazepine]",agonist activity in IP1 assay,hM1 [1],no agonist activity
same,agonist activity in pERK1/2 assay,hM1 [2],no agonist activity
same,FOLD OVER BASAL,[3],1.1 fold and 0.9 fold and 1.2 fold and 0.7 fold
same,FOLD OVER BASAL,[4],3.4 fold and 2.2 fold and 2 fold and 1.9 fold
same,FOLD OVER BASAL,[5],0.9 fold and 0.6 fold and 0.8 fold
same,FOLD OVER BASAL,[6],0.8 fold and 0.5 fold
same,FOLD OVER BASAL,[7],0.6 fold and 0.7 fold and 0.8 fold
same,FOLD OVER BASAL,[8],0.6 fold and 0.5 fold and 0.9 fold
same,FOLD OVER BASAL,[9]; CALCRb,0.8 fold and 0.6 fold and 0.5 fold
same,FOLD OVER BASAL,[9]; GAL2,1.2 fold and 0.9 fold and 1.3 fold
same,FOLD OVER BASAL,[9]; GAL3,1.1 fold and 0.7 fold and 0.9 fold
same,FOLD OVER BASAL,[9]; HCTR2,1.1 fold and 0.8 fold and 0.6 fold
same,FOLD OVER BASAL,[9]; PK1,1.3 fold and 1.4 fold and 0.8 fold and 1.5 fold
same,FOLD OVER BASAL,[9]; PRRP,1 fold and 0.9 fold and 0.6 fold
same,agonist activity at GPCRome (fold of basal),"[9]; single concentration 5 μM, PRESTO-Tango, quadruplicate","agonist activity only at M4-, D2-, and H4-histamine receptors"
same,"antagonist activity (shift of acetylcholine curve, pERK)",hM1 [10],weak functional antagonism
same,"effective free concentration at the peak, brain",[11]; 5 mg/kg i.p.,28 nM
same,"effective free concentration at the peak, plasma",[11]; 5 mg/kg i.p.,~54 nM
same,brain level reached,"[11]; 5 mg/kg i.p., time course",579 ng/mL and 2 μM
same,peak plasma level,"[11]; 5 mg/kg i.p., time course",1150 ng/mL and 4.12 μM
same,calculated free brain concentration,"[11]; dose 0.3 mg/kg, mice",~1.7 nM
same,calculated free concentration,"[11]; dose 3 mg/kg, mice",~17 nM
same,brain and plasma levels,[11]; [16],measurable brain and plasma levels
same,metabolism to clozapine,[11]; [16],no evidence of metabolism to clozapine
same,food intake,hM3Dq in LH-vGAT neurons,drives feeding in a dose-dependent fashion
same,EC50,hM1Dq [12],0.00123 µM
same,EC50,hM4Di,0.0178 µM
same,Ki,hM1Dq [13],0.0631 µM
same,higher binding affinity at hM1Dq than at wildtype hM1,hM1Dq [13]; hM1Dq vs hM1,> 10 fold
same,EC50,hM1Dq [14],0.288 µM
same,"food intake, light cycle, sated mice","[15]; SIM1-Cre mice with AAV-DIO-hM4Di-mCherry, i.p.",substantially enhanced food consumption at comparable levels to CNO
same,food intake in control mice,[15]; wildtype (non-Cre-expressing) littermates injected with AAV-DIO-hM4Di-mCherry,neither C21 nor CNO ligand influenced food intake
